Values joined by “and” are separate entries in the source; they are usually repeats but may differ in a detail not shown here. Equal values may be shown once.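 Compound exposure: 48 hours, 5 concentrations, 96-well plates. Here, GI50 denotes the concentration required for 50% inhibition of growth. TGI marks complete inhibition of growth.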
Tests used:
Assay in all cases: growth of human tumour cells (NCI), 48 h
IGROV1 ovarian = tested on: IGROV1 ovarian
NCI-H23 lung = tested on: NCI-H23 lung
CCRF-CEM leukemia = tested on: CCRF-CEM leukemia
M14 melanoma = tested on: M14 melanoma
SNB-75 CNS = tested on: SNB-75 CNS
SF-268 CNS = tested on: SF-268 CNS
SNB-19 CNS = tested on: SNB-19 CNS
SR leukemia = tested on: SR leukemia
MCF7 breast = tested on: MCF7 breast
PC-3 prostate = tested on: PC-3 prostate

| SMILES | TGI (IGROV1 ovarian) [µM] | TGI (NCI-H23 lung) | TGI (CCRF-CEM leukemia) [µM] | TGI (M14 melanoma) | TGI (SNB-75 CNS) [µM] | TGI (SF-268 CNS) [µM] | TGI (SNB-19 CNS) [µM] | TGI (SR leukemia) | GI50 (SR leukemia) [µM] | GI50 (MCF7 breast) [µM] | TGI (MCF7 breast) [µM] | GI50 (M14 melanoma) [µM] | TGI (PC-3 prostate) [µM] | GI50 (IGROV1 ovarian) [µM] | GI50 (NCI-H23 lung) [µM] | GI50 (CCRF-CEM leukemia) [µM] | GI50 (PC-3 prostate) [µM] | GI50 (SF-268 CNS) [µM] | GI50 (SNB-19 CNS) [µM] |
| --- | --- | --- | --- | --- | --- | --- | --- | --- | --- | --- | --- | --- | --- | --- | --- | --- | --- | --- | --- |
| Cc1ccccc1C(C#N)/C(=N/NC(N)=S)C(=O)Nc1c(C)cccc1C (configuration not stated) | > 100 | > 100 µM | > 100 | > 100 µM | > 100 | > 100 | > 100 | – | – | – | – | – | – | – | – | – | – | – | – |
| Cc1cc2c(=O)cc(-c3ccc(O)cc3)oc2c(C(=O)O)c1C | > 100 | > 100 µM | > 100 | > 100 µM | > 100 | – | > 100 | > 100 µM | – | – | – | – | – | – | – | – | – | – | – |
| Cc1cc2c(=O)cc(-c3ccc(Cl)cc3Cl)oc2c(C(=O)O)c1C | > 100 | > 100 µM | > 100 | > 100 µM | > 100 | > 100 | > 100 | – | – | – | – | – | – | – | – | – | – | – | – |
| Nc1cc2c(c3ccccc13)C(CCl)CN2C(=O)c1cc2cc(NC(=O)c3cc4ccccc4o3)ccc2[nH]1 (configuration not stated) | – | 0.027 µM and 0.125 µM | – | – | – | – | 0.408 | 200 µM | > 0.11 | > 0.11 | < 0.11 | – | – | – | – | – | – | – | – |
| N#CC1(C#N)C2C=CC(C3CC=CC32)C1(C#N)C#N (configuration not stated) | 16.5 | 19.8 µM | 3.43 | 3.74 µM and 16 µM | – | 22.6 | > 50 | 7.12 µM and 17.6 µM | 7.6 | – | – | 8.72 | 16.2 | – | – | – | – | – | – |
| CC(=O)Nc1ccc(S(=O)(=O)N/N=C/c2cc(I)cc([N+](=O)[O-])c2O)cc1 | > 100 | 85 µM | > 100 | > 100 µM | 91.6 | > 100 | > 100 | – | – | – | – | – | – | – | – | – | – | – | – |
| CC(=O)OC1C(COC(N)=O)OC(n2c(-c3ccc(C)cc3)cc(-c3ccccc3)c(C#N)c2=O)C(OC(C)=O)C1OC(C)=O (configuration not stated) | > 100 | > 100 µM | > 100 | > 100 µM | > 100 | > 100 | > 100 | > 100 µM | – | – | – | – | – | – | – | – | – | – | – |
| C=CCC1=C2CCCCC2CCC1=O (configuration not stated) | > 100 | > 100 µM | > 100 | > 100 µM | > 100 | > 100 | > 100 | – | – | – | – | – | – | – | – | – | – | – | – |
| O=C(Cc1c(C(=O)Nc2ccccc2)sc(C(=O)Nc2ccccc2)c1CC(=O)Nc1ccccc1)Nc1ccccc1 | > 100 | > 100 µM | > 100 | > 100 µM | > 100 | 13.7 | > 100 | – | – | – | – | – | – | – | – | – | – | – | – |
| OCC(O)COc1ccc(F)cc1 (configuration not stated) | > 100 | > 100 µM | > 100 | > 100 µM | > 100 | > 100 | > 100 | > 100 µM | – | – | – | – | – | – | – | – | – | – | – |
| CCOC(=O)Cc1csc(Nc2nc(O)c(C3=c4ccccc4=NC3=O)s2)n1 | 69 | > 100 µM | 50.8 | – | – | > 100 | > 100 | – | – | 85.5 | > 100 | – | > 100 | 27.2 | 56 | 21.1 | 30.8 | 34.6 | 38.4 |
| CC1=CC=C2C(C)(C)CC[C@@H]3OC(=O)[C@H]1[C@]23C | > 100 | > 100 µM | > 100 | > 100 µM | > 100 | > 100 | > 100 | > 100 µM | – | – | – | – | – | – | – | – | – | – | – |
| Cc1ccc(S(=O)OC2c3ccccc3Cc3ccccc32)cc1 (configuration not stated) | 45.6 | 33.8 µM | – | 33.8 µM | 34.6 | 47.1 | 59 | 70.8 µM | – | – | – | – | – | – | – | – | – | – | – |
| COC(=O)CCC(=O)C(CC(=O)OC)C(=O)CCC(=O)NCCc1ccccc1 (configuration not stated) | > 100 | > 100 µM | > 100 | > 100 µM | > 100 | > 100 | > 100 | > 100 µM | – | – | – | – | – | – | – | – | – | – | – |
| O=C(O)COc1ccc2c3c1C(=O)CCC3CO2 (configuration not stated) | > 100 | > 100 µM | > 100 | > 100 µM | – | > 100 | > 100 | – | – | – | – | – | – | – | – | – | – | – | – |
| O=C(O)c1ccc(NCn2nc(-c3ccccc3O)oc2=S)cc1O | > 100 | > 100 µM | – | > 100 µM | – | > 100 | > 100 | – | – | > 100 | > 100 | > 100 | > 100 | > 100 | > 100 | – | 86.6 | > 100 | > 100 |
| CNC(=O)N(CCCC(NC(C)=O)C(=O)NCc1ccccc1)Cc1ccccc1 (configuration not stated) | > 100 | > 100 µM | > 100 | > 100 µM | > 100 | > 100 | > 100 | – | – | – | – | – | – | – | – | – | – | – | – |
| Cc1cc2c(=O)cc(-c3ccc(C(=O)O)cc3)oc2c(C(N)=O)c1C | > 100 | > 100 µM | > 100 | > 100 µM | > 100 | > 100 | > 100 | – | – | – | – | – | – | – | – | – | – | – | – |
| O=C1C2=C(c3ccccc31)C(c1ccccc1Cl)NC(=S)N2 (configuration not stated) | > 100 | > 100 µM | > 100 | > 100 µM | > 100 | > 100 | > 100 | – | – | – | – | – | – | – | – | – | – | – | – |
